Data from patent US10118915B2, “Kappa opioid ligands” (The Scripps Research Institute, priority 2012, dated 2018).
Like-named read-outs stand apart in the source and are kept apart here.

Biological target: kappa opioid receptor (OPRK1) (Homo sapiens (Human), UniProt P41145)
Assay: OPRK1 antagonist assay (b-arrestin-2-TEV protease / b-lactamase reporter cell line, EC80 challenge of U-50488)
Assay type: cell-based
[1] = antagonist mode vs EC80 U-50488, read-out: IC50

kappa opioid receptor (OPRK1), sequence (P41145 whole entry): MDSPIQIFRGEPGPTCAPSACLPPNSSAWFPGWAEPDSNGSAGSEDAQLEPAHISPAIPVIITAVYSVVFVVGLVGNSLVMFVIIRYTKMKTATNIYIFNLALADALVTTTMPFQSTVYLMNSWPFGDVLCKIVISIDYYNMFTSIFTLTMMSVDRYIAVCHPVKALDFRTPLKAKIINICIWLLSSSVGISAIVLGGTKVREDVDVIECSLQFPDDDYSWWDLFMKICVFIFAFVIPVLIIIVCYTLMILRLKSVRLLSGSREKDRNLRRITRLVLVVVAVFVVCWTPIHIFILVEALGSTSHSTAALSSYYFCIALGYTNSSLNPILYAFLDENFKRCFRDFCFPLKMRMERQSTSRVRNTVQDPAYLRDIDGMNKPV

Row | SMILES | IC50 [1] [µM] | IC50 [µM]
1 | Cc1cc(C#N)nc(N2CCC(N[C@@H]3CCCC[C@H]3O)CC2)c1C#N [C11] | > 10 | 
2 | COC(=O)c1cc(Br)cnc1NC1CCC(NC2CCCCC2)CC1 (centres unmarked) [C20] |  | > 10
3 | CC(C)c1noc(-c2cc(Br)cnc2N2CCC(NC3CCCCC3)CC2)n1 [C42] |  | > 10
4 | Cc1ccc2nc(N3C[C@@H]4[C@H](C3)[C@H]4NC3CCOCC3)c(-c3nc(C)no3)cc2c1 [C88] |  | > 10
5 | COC1CN(c2nc3ccccc3cc2C2=NCC(C)O2)CCC1NC1CCCCC1O (centres unmarked) [compound 258] | 7.16 | 
6 | CCc1noc(-c2cc3cc(C)ccc3nc2N2CC[C@@H](NC3CCCCC3)[C@H](OC)C2)n1 [compound 335] | 0.113 | 
7 | Cc1nc(-c2cc3ccc(F)cc3nc2N2CCC(NC3CCOCC3)CC2)no1 [compound 486] | 1.07 | 
8 | Cc1nc(-c2cc3cc(F)ccc3nc2N2CCC(NC3CCCCCC3)CC2)no1 [compound 489] | 0.616 | 
